{
  "source": "patent US20240350591A1",
  "about": "“COMPOSITION AND METHODS OF TREATMENT USING […]-ENHANCED SUPPLEMENTATION” (Xygenyx Inc., priority 2023, published 2024)",
  "origin": "cited, not measured here",
  "key": {"[1]": {"details": "patients who did not respond to traditional antidepressant medications"}, "[2]": {"details": "transdermal route"}, "[3]": {"system": "wide dynamic range neurons in the ventroposterolateral nucleus of the thalamus", "details": "in vivo"}, "skin [4]": {"system": "skin", "details": "topical, concentrations 0.5-5%"}, "skin [5]": {"system": "skin", "details": "topical formulations, within four weeks of treatment"}, "[6]": {"details": "compared to α-tocopherol = 1.0"}, "F2-isoprostane": {"system": "F2-isoprostane", "details": "large doses of 1600-3200 IU/day"}, "[7]": {"experiment": "not given", "remark": "listed apart in the source"}, "[8]": {"details": "dietary intake in equal portions"}, "markers of inflammation": {"system": "markers of inflammation", "details": "individuals with metabolic syndrome"}, "[9]": {"details": "in vivo"}},
  "note": "Non-standard residues stand in square brackets, D forms with d. Residues, ends and D or L forms follow the SMILES beside them. ξ: configuration not given here. Cit = NC(=O)NCCC[C@H](N)C(=O)O; Ile(3ξ) = CCC(C)[C@H](N)C(=O)O",
  "data": [
    {"molecule": "CN1c2c([nH]c(N)nc2=O)NCC1CNc1ccc(C(=O)N[C@@H](CCC(=O)O)C(=O)O)cc1", "note": "(some centres unmarked) [5-MTHF, 5-methyltetrahydrofolate]", "values": [
      {"measurement": "symptoms of depression", "setting": "[1]", "value": "improved"}
    ]},
    {"molecule": "CC(C)[C@@H]1CC[C@@H](C)C[C@H]1O", "note": "[Menthol]", "values": [
      {"measurement": "factor of increase of drug uptake", "setting": "[2]", "value": "≥ 10"}
    ]},
    {"molecule": "CCCCCc1cc(O)c2c(c1)OC(C)(C)C1CCC(C)=CC21", "note": "(centres unmarked) [THC, Δ-9-tetrahydrocannabinol]", "values": [
      {"measurement": "power in mediating pain relative to morphine", "setting": "[3]", "value": "ten times"}
    ]},
    {"molecule": "C=CCCCCCCCCC(=O)N[C@@H](Cc1ccccc1)C(=O)O", "note": "[UP, Undecylenoyl phenylalanine]", "values": [
      {"measurement": "time of treatment to skin lightening effects", "setting": "skin [4]", "value": "≥ 7", "unit": "days"}
    ]},
    {"molecule": "CC12CCC(CC1)C(C)(C)O2", "note": "[eucalyptol, 1,8-epoxy-p-menthane]", "values": [
      {"measurement": "factor of increase of drug uptake", "setting": "[2]", "value": "more than 10"}
    ]},
    {"molecule": "CCC(C)[C@H](NC(=O)[C@H](CC(=O)O)NC(=O)[C@@H](N)CCCCN)C(=O)N[C@@H](CCCNC(N)=O)C(N)=O", "note": "(some centres unmarked) [tripeptide-10 citrulline, Tripeptide-10 citrulline] (H-KD[Ile(3ξ)][Cit]-NH2)", "values": [
      {"measurement": "improvement of suppleness", "setting": "skin [5]", "value": "≤ 54", "unit": "%"}
    ]},
    {"molecule": "Cc1c(C)c2c(c(C)c1O)CC[C@@](C)(CCC[C@H](C)CCC[C@H](C)CCCC(C)C)O2", "note": "[α-tocopherol]", "values": [
      {"measurement": "reduction of risk of coronary disease", "setting": "dietary supplementation, doses up to 400 IU/day", "value": "up to 34%"},
      {"measurement": "reduction of risk of developing neurodegenerative diseases (Alzheimer's Syndrome or dementia)", "setting": "dietary supplementation, doses up to 400 IU/day, controlled trials", "value": "≤ 24", "unit": "%"},
      {"measurement": "reduction in the development of age-related cataracts", "setting": "in combination with 10-20 mg β-carotene and 400-500 mg vitamin C, doses around 400-500 IU", "value": 23, "unit": "%"},
      {"measurement": "relative biological activity", "setting": "[6]", "value": 1.0},
      {"measurement": "blood plasma concentration of F2-isoprostane", "setting": "F2-isoprostane", "value": "significantly lower"}
    ]},
    {"molecule": "C=C1CC/C=C(\\C)CC[C@@H]2[C@@H]1CC2(C)C", "note": "[β-caryophyllene]", "values": [
      {"measurement": "increases of protein carbonyl groups and myeloperoxidase activity in the liver and plasma", "setting": "[7]; arthritic subjects", "value": "eliminated"},
      {"measurement": "number of circulating and articular leukocytes", "setting": "[7]; rheumatoid arthritis", "value": "reduced"},
      {"measurement": "swelling of joints and lymph nodes", "setting": "[7]; rheumatoid arthritis", "value": "reduced"}
    ]},
    {"molecule": "Cc1cc(O)c(C)c2c1O[C@](C)(CCC[C@H](C)CCC[C@H](C)CCCC(C)C)CC2", "note": "[β-tocopherol]", "values": [
      {"measurement": "relative biological activity", "setting": "[6]", "value": 0.5}
    ]},
    {"molecule": "Cc1c(O)cc2c(c1C)O[C@](C)(CCC[C@H](C)CCC[C@H](C)CCCC(C)C)CC2", "note": "[γ-tocopherol]", "values": [
      {"measurement": "relative biological activity", "setting": "[6]", "value": 0.1},
      {"measurement": "concentration in vivo relative to α-tocopherol", "setting": "[8]", "value": "roughly 10%"}
    ]},
    {"molecule": "Cc1cc(O)cc2c1O[C@](C)(CCC[C@H](C)CCC[C@H](C)CCCC(C)C)CC2", "note": "[δ-tocopherol]", "values": [
      {"measurement": "relative biological activity", "setting": "[6]", "value": 0.03},
      {"measurement": "markers of inflammation in the blood", "setting": "markers of inflammation", "value": "reduced"}
    ]},
    {"molecule": "HGH: hormone comprising a peptide chain that is synthesized in the pituitary gland", "values": [
      {"measurement": "biological half-life", "setting": "[9]", "value": "10-20 minutes"}
    ]}
  ]
}
